Measured values taken from the supplement of paper PMC10307832.

Assays:
Assay in all cases: relative viability (nuclei count vs DMSO), 5 days (fraction); higher = more cells survive
SK-LU-1 = system: SK-LU-1
How it was run: (§1)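 Dosing by pin tool came one day after lung cancer cell lines were seeded in 1536-well plates, using either one drug or a fixed anchor-drug dose plus five library-drug doses (not always all listed) in √10 steps. After 5 days, nuclei were counted on 4× images. Relative viability is treated-well nuclei count divided by vehicle-well nuclei count, and values are medians of duplicate plates.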

LU99A = system: LU99A
How it was run: as §1

NCI-H1975 = system: NCI-H1975
How it was run: as §1

HCC-366 = system: HCC-366
How it was run: as §1

NCI-H1944 = system: NCI-H1944
How it was run: as §1

NCI-H1793 = system: NCI-H1793
How it was run: as §1

COR-L 105 = system: COR-L 105
How it was run: as §1

EPLC-272H = system: EPLC-272H
How it was run: as §1

NCI-H1792 = system: NCI-H1792
How it was run: as §1

UMC-11 = system: UMC-11
How it was run: as §1

NCI-H1915 = system: NCI-H1915
How it was run: as §1

HOP-62 = system: HOP-62
How it was run: as §1

NCI-H2085 = system: NCI-H2085
How it was run: as §1

NCI-H2170 = system: NCI-H2170
How it was run: as §1

HCC-78 = system: HCC-78
How it was run: as §1

A-427 = system: A-427
How it was run: as §1

NCI-H1755 = system: NCI-H1755
How it was run: as §1

LCLC-97TM1 = system: LCLC-97TM1
How it was run: as §1

LXF-289 = system: LXF-289
How it was run: as §1

NCI-H460 = system: NCI-H460
How it was run: as §1

LC-2-ad = system: LC-2-ad
How it was run: as §1

Q: For `C[C@@H]1CN(CC(=O)Nc2ccc3c(c2)Cc2cccc(-c4cc(=O)cc(N5CCOCC5)o4)c2S3)C[C@H](C)O1` + CC1(C)CCC(c2ccc(Cl)cc2)=C(CN2CCN(c3ccc(C(=O)NS(=O)(=O)c4ccc(N[C@H](CCN5CCOCC5)CSc5ccccc5)c(S(=O)(=O)C(F)(F)F)c4)cc3)CC2)C1 [Navitoclax] (partner 0.5 µM), which relative viability (SK-LU-1; first compound 0.04 µM) is on record?
A: Its relative viability is 0.761.

Q: What about the relative viability (SK-LU-1; first compound 0.1265 µM) of the same molecule?
A: Its relative viability is 0.969.

Q: What about the relative viability (SK-LU-1; first compound 0.4 µM) of the same molecule?
A: The relative viability was 0.956.

Q: What about the relative viability (SK-LU-1; first compound 4 µM) of the same molecule?
A: Its relative viability is 0.637.

Q: And the relative viability (LU99A; first compound 0.04 µM)?
A: The relative viability was 0.856.

Q: What about the relative viability (LU99A; first compound 0.1265 µM) of the same molecule?
A: Its relative viability is 0.758.

Q: And the relative viability (LU99A; first compound 0.4 µM)?
A: Its relative viability is 0.926.

Q: And the relative viability (LU99A; first compound 4 µM)?
A: The relative viability was 0.821.

Q: What about the relative viability (NCI-H1975; first compound 0.04 µM) of the same molecule?
A: Its relative viability is 1.33.

Q: And the relative viability (NCI-H1975; first compound 0.1265 µM)?
A: Its relative viability is 1.06.

Q: And the relative viability (NCI-H1975; first compound 0.4 µM)?
A: The relative viability was 1.02.

Q: And the relative viability (NCI-H1975; first compound 4 µM)?
A: The relative viability was 0.846.

Q: And the relative viability (HCC-366; first compound 0.04 µM)?
A: Its relative viability is 1.04.

Q: What about the relative viability (HCC-366; first compound 0.1265 µM) of the same molecule?
A: The relative viability was 1.08.

Q: And the relative viability (HCC-366; first compound 0.4 µM)?
A: The relative viability was 1.15.

Q: What about the relative viability (HCC-366; first compound 4 µM) of the same molecule?
A: Its relative viability is 0.944.

Q: What about the relative viability (NCI-H1944; first compound 0.1265 µM) of the same molecule?
A: The relative viability was 1.02.

Q: And the relative viability (NCI-H1944; first compound 0.4 µM)?
A: The relative viability was 1.11.

Q: What about the relative viability (NCI-H1944; first compound 4 µM) of the same molecule?
A: The relative viability was 1.06.

Q: And the relative viability (NCI-H1793; first compound 0.04 µM)?
A: The relative viability was 0.495.

Q: And the relative viability (NCI-H1793; first compound 0.1265 µM)?
A: The relative viability was 0.341.

Q: And the relative viability (NCI-H1793; first compound 0.4 µM)?
A: The relative viability was 0.322.

Q: What about the relative viability (NCI-H1793; first compound 4 µM) of the same molecule?
A: Its relative viability is 0.377.

Q: And the relative viability (COR-L 105; first compound 0.04 µM)?
A: Its relative viability is 1.01.

Q: What about the relative viability (COR-L 105; first compound 0.1265 µM) of the same molecule?
A: Its relative viability is 0.801.

Q: What about the relative viability (COR-L 105; first compound 0.4 µM) of the same molecule?
A: Its relative viability is 0.728.

Q: What about the relative viability (COR-L 105; first compound 4 µM) of the same molecule?
A: Its relative viability is 0.686.

Q: What about the relative viability (EPLC-272H; first compound 0.04 µM) of the same molecule?
A: The relative viability was 1.09.

Q: What about the relative viability (EPLC-272H; first compound 0.1265 µM) of the same molecule?
A: Its relative viability is 0.935.

Q: And the relative viability (EPLC-272H; first compound 0.4 µM)?
A: The relative viability was 1.11.

Q: And the relative viability (EPLC-272H; first compound 4 µM)?
A: Its relative viability is 0.911.

Q: What about the relative viability (NCI-H1792; first compound 0.04 µM) of the same molecule?
A: The relative viability was 0.593.

Q: What about the relative viability (NCI-H1792; first compound 0.1265 µM) of the same molecule?
A: Its relative viability is 0.597.

Q: What about the relative viability (NCI-H1792; first compound 0.4 µM) of the same molecule?
A: The relative viability was 0.632.

Q: What about the relative viability (NCI-H1792; first compound 4 µM) of the same molecule?
A: Its relative viability is 0.597.

Q: And the relative viability (UMC-11; first compound 0.04 µM)?
A: The relative viability was 0.32.

Q: What about the relative viability (UMC-11; first compound 0.1265 µM) of the same molecule?
A: The relative viability was 0.288.

Q: What about the relative viability (UMC-11; first compound 0.4 µM) of the same molecule?
A: The relative viability was 0.301.

Q: And the relative viability (UMC-11; first compound 4 µM)?
A: The relative viability was 0.229.

Q: What about the relative viability (NCI-H1915; first compound 0.04 µM) of the same molecule?
A: Its relative viability is 0.792.

Q: And the relative viability (NCI-H1915; first compound 0.1265 µM)?
A: Its relative viability is 0.789.

Q: And the relative viability (NCI-H1915; first compound 0.4 µM)?
A: Its relative viability is 0.796.

Q: And the relative viability (NCI-H1915; first compound 4 µM)?
A: Its relative viability is 0.753.

Q: And the relative viability (HOP-62; first compound 0.04 µM)?
A: Its relative viability is 0.879.

Q: What about the relative viability (HOP-62; first compound 0.1265 µM) of the same molecule?
A: The relative viability was 0.979.

Q: What about the relative viability (HOP-62; first compound 0.4 µM) of the same molecule?
A: The relative viability was 1.14.

Q: And the relative viability (HOP-62; first compound 4 µM)?
A: The relative viability was 1.01.

Q: And the relative viability (NCI-H2085; first compound 0.04 µM)?
A: The relative viability was 1.23.

Q: What about the relative viability (NCI-H2085; first compound 0.1265 µM) of the same molecule?
A: The relative viability was 1.18.

Q: And the relative viability (NCI-H2085; first compound 0.4 µM)?
A: The relative viability was 1.02.

Q: And the relative viability (NCI-H2085; first compound 4 µM)?
A: The relative viability was 0.827.

Q: What about the relative viability (NCI-H2170; first compound 0.1265 µM) of the same molecule?
A: Its relative viability is 0.617.

Q: What about the relative viability (NCI-H2170; first compound 0.4 µM) of the same molecule?
A: The relative viability was 0.471.

Q: And the relative viability (NCI-H2170; first compound 4 µM)?
A: Its relative viability is 0.475.

Q: And the relative viability (HCC-78; first compound 0.04 µM)?
A: The relative viability was 0.668.

Q: And the relative viability (HCC-78; first compound 0.1265 µM)?
A: The relative viability was 0.706.

Q: What about the relative viability (HCC-78; first compound 0.4 µM) of the same molecule?
A: The relative viability was 0.69.

Q: And the relative viability (HCC-78; first compound 4 µM)?
A: The relative viability was 0.914.

Q: What about the relative viability (A-427; first compound 0.04 µM) of the same molecule?
A: The relative viability was 0.988.

Q: And the relative viability (A-427; first compound 0.1265 µM)?
A: Its relative viability is 0.982.

Q: And the relative viability (A-427; first compound 0.4 µM)?
A: Its relative viability is 0.983.

Q: And the relative viability (A-427; first compound 4 µM)?
A: Its relative viability is 0.967.

Q: What about the relative viability (NCI-H1755; first compound 0.04 µM) of the same molecule?
A: The relative viability was 1.02.

Q: And the relative viability (NCI-H1755; first compound 0.1265 µM)?
A: Its relative viability is 0.945.

Q: And the relative viability (NCI-H1755; first compound 0.4 µM)?
A: The relative viability was 0.924.

Q: And the relative viability (NCI-H1755; first compound 4 µM)?
A: Its relative viability is 0.92.

Q: What about the relative viability (LCLC-97TM1; first compound 0.1265 µM) of the same molecule?
A: Its relative viability is 0.645.

Q: What about the relative viability (LCLC-97TM1; first compound 0.4 µM) of the same molecule?
A: The relative viability was 0.279.

Q: And the relative viability (LCLC-97TM1; first compound 4 µM)?
A: Its relative viability is 0.318.

Q: What about the relative viability (LXF-289; first compound 0.04 µM) of the same molecule?
A: The relative viability was 0.941.

Q: And the relative viability (LXF-289; first compound 0.1265 µM)?
A: Its relative viability is 0.929.

Q: And the relative viability (LXF-289; first compound 0.4 µM)?
A: The relative viability was 1.

Q: And the relative viability (LXF-289; first compound 4 µM)?
A: Its relative viability is 0.913.

Q: And the relative viability (NCI-H460; first compound 0.04 µM)?
A: The relative viability was 1.07.

Q: What about the relative viability (NCI-H460; first compound 0.1265 µM) of the same molecule?
A: Its relative viability is 1.17.

Q: What about the relative viability (NCI-H460; first compound 0.4 µM) of the same molecule?
A: Its relative viability is 1.22.

Q: What about the relative viability (NCI-H460; first compound 4 µM) of the same molecule?
A: The relative viability was 0.955.

Q: And the relative viability (LC-2-ad; first compound 0.04 µM)?
A: Its relative viability is 0.587.

Q: And the relative viability (LC-2-ad; first compound 0.1265 µM)?
A: Its relative viability is 0.46.

Q: And the relative viability (LC-2-ad; first compound 0.4 µM)?
A: Its relative viability is 0.336.

Q: What about the relative viability (LC-2-ad; first compound 4 µM) of the same molecule?
A: Its relative viability is 0.29.
